Measurements taken from patent US4323648A, “Preparation of Monacolin K” (Sankyo Company Limited, priority 1979, dated 1982).

Experiments:
[1] = type: physicochemical
Text: Insoluble in hexane and petroleum ether.
The compound is neutral and is insoluble in neutral or acidic aqueous media. It is, however, converted to an acidic substance by treatment with alkali and this acidic substance is soluble in water. The acidic substance can be extracted with ethyl acetate or chloroform at acid pH values and will revert to Monacolin K on evaporation of the solvent.

[2] = target: cholesterol biosynthesis (crude enzymes from rat liver); assay: In vitro test with rat liver: inhibition of cholesterol biosynthesis from radioactive acetic acid; type: biochemical; conditions: acetic acid reacted with enzyme from rat liver
[3] = target: T1, HMG-CoA reductase (Rattus norvegicus, UniProt P51639); assay: biochemical
T1 sequence (P51639 1-887): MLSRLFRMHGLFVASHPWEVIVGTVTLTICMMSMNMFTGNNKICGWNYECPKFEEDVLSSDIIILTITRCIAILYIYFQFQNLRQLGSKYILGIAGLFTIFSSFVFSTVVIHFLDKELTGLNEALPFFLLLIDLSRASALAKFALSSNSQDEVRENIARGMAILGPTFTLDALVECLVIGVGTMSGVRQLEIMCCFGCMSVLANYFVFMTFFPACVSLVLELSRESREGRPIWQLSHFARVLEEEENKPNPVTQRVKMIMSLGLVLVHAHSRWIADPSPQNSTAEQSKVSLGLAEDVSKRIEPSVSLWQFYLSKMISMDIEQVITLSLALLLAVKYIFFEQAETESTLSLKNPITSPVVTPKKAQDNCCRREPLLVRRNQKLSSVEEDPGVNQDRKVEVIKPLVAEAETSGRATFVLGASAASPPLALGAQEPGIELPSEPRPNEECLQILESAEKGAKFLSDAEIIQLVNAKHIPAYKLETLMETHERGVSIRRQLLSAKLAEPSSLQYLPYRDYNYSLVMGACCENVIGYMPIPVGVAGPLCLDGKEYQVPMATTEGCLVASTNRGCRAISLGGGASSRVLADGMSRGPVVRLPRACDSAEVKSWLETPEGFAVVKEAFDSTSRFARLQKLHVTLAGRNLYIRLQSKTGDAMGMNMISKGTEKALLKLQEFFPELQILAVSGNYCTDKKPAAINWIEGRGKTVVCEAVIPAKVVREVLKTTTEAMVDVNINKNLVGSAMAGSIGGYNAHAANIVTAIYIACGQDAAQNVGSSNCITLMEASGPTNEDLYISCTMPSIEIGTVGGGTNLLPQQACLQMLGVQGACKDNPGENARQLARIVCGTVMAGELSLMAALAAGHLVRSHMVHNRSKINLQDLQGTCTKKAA
Text: The value is obtained by the product of the concentrations of enzyme and of inhibitor divided by the concentration of the enzyme-inhibitor complex.

[4] = tested on: rats of the Wistar Imamichi strain; assay: Reduction of blood and liver cholesterol levels in Triton WR-1339 treated rats; type: in vivo; conditions: rat
Procedure: The animals used were rats of the Wistar Imamichi strain, each having a body weight of about 300 g. The tests were conducted on groups of rats, each group consisting of 5 animals. Each animal was intravenously injected with 400 mg/kg of Triton WR-1339 (a trade name for a material known to increase the blood cholesterol level) whilst simultaneously administering 10 mg/kg of Monacolin K either orally or intraperitoneally. 20 hours after oral administration or 14 hours after intraperitoneal administration, the rats were sacrificed by bleeding and the blood and livers were collected and their cholesterol levels were determined by conventional means.

[5] = Acute oral toxicity; conditions: in vivo, mouse
Text: Not only does Monacolin K have a valuable inhibitory effect on the biosynthesis of cholesterol, but it also has a very low toxicity, making its use for the treatment of hypercholesteraemia potentially very attractive. Specifically the acute oral toxicity (LD50) of Monacolin K in the mouse is 1 g/kg body weight or more.

[6] = tested on: rabbits; assay: Reduction of blood cholesterol levels in rabbits; type: in vivo; conditions: rabbit, 1 mg/kg oral twice each day
Procedure: In this test, the ability of Monacolin K to reduce cholesterol levels in rabbit blood is measured. The animals employed should each weigh from 2.5 to 3.0 kg. At the beginning of the tests, blood is collected from a vein in an ear of each rabbit and the cholesterol level in the blood serum is measured by a conventional method. A predetermined quantity of Monacolin K or of a Monacolin K-containing culture broth is then administered orally continuously for from 1 to 5 days and the cholesterol level in the blood serum is measured at stages after the administration. The potency of the Monacolin K or Monacolin K-containing culture medium can be determined quantitatively from the blood cholesterol levels obtained prior to and after administration of the Monacolin K.
The test animals used were rabbits having a body weight of from 2.7. kg to 2.9 kg. Each rabbit was given orally 1 mg/kg of Monacolin K twice each day (morning and evening) continuously for 5 days. Prior to administration and at 3 and 5 days after administration, blood was collected from a vein in the ear and the cholesterol levels in the blood serum were determined.

[7] = 10 mg/kg oral, 20 hours after administration

Compound | Solubility [1] | concentration giving 50% inhibition of cholesterol biosynthesis [2] [µg/mL] | Ki ([3]; competitive with respect to HMG-CoA, read-out: Ki value (inhibition constant)) [nM] | manner of inhibition of HMG-CoA reductase ([3]; with respect to HMG-CoA) | reduction of blood cholesterol level vs control group (Triton WR-1339 alone) ([4]; 10 mg/kg intraperitoneal, 14 hours after administration) [%] | reduction of blood cholesterol level vs control group (Triton WR-1339 alone) [4, 7] [%] | reduction of liver cholesterol level [4, 7] [%] | LD50 [5] [mg/kg] | blood serum cholesterol level lower than prior to administration ([6]; at 3 days) [%] | blood serum cholesterol level lower than prior to administration ([6]; at 5 days) [%]
CCC(C)C(=O)OC1CC(C)C=C2C=CC(C)C(CCC(O)CC(O)CC(=O)O)C21 (stereo not shown) [acidic substance] | soluble |  |  |  |  |  |  |  |  | 
CCC(C)C(=O)OC1CC(C)C=C2C=CC(C)C(CCC3CC(O)CC(=O)O3)C21 (stereo not shown) [Monacolin K] |  | 0.002 | 0.53 | competitive | 23.9 | 22.4 | 16.7 | ≥ 1000 | 15 | 29
